From patent US20100254942A1, “HEPATITIS C ANTIVIRAL COMPOSITIONS AND METHODS” (BIOTRON LIMITED, priority 2007, published 2010)
Entries after “also recorded” stand apart in the source; their conditions may differ. Where two headings read alike, the source gives them in different places.

How the values were obtained:
[1] = test system: bovine viral diarrhea virus (BVDV) strain NADL; experiment: BVDV CPE-inhibition assay in MDBK cells; assay type: cell-based; details: for EC50: read-out: EC50
Procedure: The antiviral evaluation of selected BIT compounds against BVDV was outsourced to Southern Research Institute (SRI), Fredrick Md. USA. A simple cytoprotection format is used in which the antiviral efficacy of the compounds is assessed by their ability to reduce the cytopathic effect of BVDV infection in Madin-Darby bovine kidney cells (Buckwold et al., 2003)
(§1) A virus-induced cytopathogenic effects (CPE)-inhibition assay procedure was employed to evaluate compounds for antiviral activity against bovine viral diarrhea virus (BVDV) strain NADL, in Madin-Darby bovine kidney (MDBK) cells passaged in T-75 flasks (1, 2). Antiviral assays were designed to test six half-log concentrations of each compound in triplicate against the challenge virus. Cell controls (CC) containing medium alone, virus-infected cell controls (VC) containing medium and virus, drug cytotoxicity controls containing medium and each drug concentration, reagent controls containing culture medium only (no cells), and drug colorimetric controls containing drug and medium (no cells) are run simultaneously with the test samples. Human interferon-α 2b was used as a positive control compound. On the day preceding the assay, the cells were trypsinized, pelleted, counted and resuspended at 1×10^4/well in tissue culture medium in 96-well flat bottom tissue culture plates in a volume of 100 μl per well. One day following plating of cells, the wells were washed and the medium was replaced with complete medium (2% serum) containing various concentrations of test compound diluted in medium in a half-log series. A pre-titered aliquot of virus was removed from the freezer (−80° C.) just before each experiment. The virus was diluted into tissue culture medium such that the amount of virus added to each well would give complete cell killing at 6-7 days post-infection. The plates were incubated at 37° C. in a humidified atmosphere containing 5% CO2 until maximum CPE is observed in the untreated virus control cultures (˜day 7) Inhibition of CPE by the compound was determined using Cell Titer 96 (Promega). A colorimetric method for determining the number of viable cells was used. A computer program was utilized to calculate the percent of CPE reduction of the virus-infected wells and the percentage cell viability of uninfected drug control wells. […] A therapeutic (selectivity) index (TI50) for each active compound was determined by dividing the TC50 by the IC50.
(§2) Drug cytotoxicity was measured separately in uninfected cells. Eleven BIT compounds were tested in the first experiment in which the compounds were added to the cells just prior to infection and were maintained throughout the entire experiment. Two of them, BIT225 and BIT314 returned sub-micromolar IC50 values (see Table 2 below).

[2] = test system: bovine viral diarrhea virus (BVDV) strain NADL; details: well known from the literature; cited from earlier work
[3] = biological target: T1, HCV p7 ion channel protein (Hepatitis C virus genotype 1a, UniProt P27958); experiment: Bacterial bioassay: growth of E. coli expressing HCV p7; assay type: cell-based; parameters: scale not given here; details: cumulative averaged scores; result above zero indicates potential anti-viral activity
T1 construct: codons were optimised for expression of the p7 protein in E. coli; expressed in transfected cells; host or cells: E. coli carrying plasmid pPLp7 (pPL451 backbone, temperature-inducible)
From the text: The bacterial bioassay method used in the present example to test the anti-viral activity of the compounds against different viral targets was described in detail in PCT/2004/000866, incorporated in its entirety herein by reference. This assay is used in conjunction with the GBV-B and BVDV assays described below, to ensure that all active compounds are identified, some of which are active in one or the other of the assays, while some compounds may be active in both assays.
Briefly, the bacterial bio-assay for screening potential anti-HCV compounds is based on the HCV p7 ion channel protein. p7 is a small membrane protein encoded by HCV, which has a functional activity supporting viral growth and/or replication.
The p7-encoding synthetic cDNA fragment cDp7.coli, in which codons were optimised for expression of the p7 protein in E. coli, was cloned into the expression plasmid pPL451, creating the vector pPLp7, in which p7 expression is temperature inducible, as described in detail in PCT/2004/000866. Inhibition of the growth of E. coli cells expressing p7 at 37° C. was observed as an indicator of p7 ion channel function dissipating the normal Na+gradient maintained by the bacterial cells. Halos of growth around a particular compound application site indicate that the compound has inhibited expression of the p7 ion channel activity that prevents growth in the absence of the compound.
The positive controls were used in this assay to ensure that the assay was working rather than for comparison of relative activities of the compounds.

GBV-B = GBV-B replication in primary marmoset hepatocytes (viral RNA by real-time RT-PCR); assay type: cell-based
From the text: GBV-B is the most closely related flavivirus to HCV, sharing 27-33% nucleotide sequence identity and 28% amino acid similarity over the complete polypeptide sequence. This virus represents an excellent surrogate system for HCV because it infects small New World primates and replicates efficiently in vitro in primary marmoset hepatocyte (PMH) cultures. The GBV-B homologue of HCV p7 is called p13. It is shown herein that a synthetic peptide corresponding to the two C-terminal transmembrane helices of p13 (which share the greatest homology to p7) forms a cation selective ion channel that, like the p7 channel, is blocked by amantadine (Premkumar et al., 2006). […] These observations confirm that the two homologous channels share similar, but not identical, structural features.
Selected BIT compounds—identified by bacterial assay screening for inhibitors of HCV p7—were tested for ability to inhibit GBV-B replication in primary marmoset hepatocytes (see FIG. 1). The hepatocytes were inoculated 3-days after plating with 10× TCID50 of GBV-B positive marmoset serum. […] was adsorbed for two hours, and then the cells were washed three times and cultured for two days in fresh serum-free medium (SFM) supplemented with hormones and growth factors. Virus released to the culture supernatant was measured as viral RNA copy number, as determined by real-time RT-PCR. […]

[4] = test system: Madin-Darby bovine kidney (MDBK) cells; experiment: Drug cytotoxicity in uninfected MDBK cells; assay type: cell-based; details: uninfected MDBK cells
From the text: as §1, §2

T1 sequence (P27958 747-809): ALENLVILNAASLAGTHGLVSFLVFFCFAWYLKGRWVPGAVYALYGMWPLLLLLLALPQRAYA

Structure (SMILES)	antiviral activity ([1]; 1.25 μg/ml Ribavirin alone)	Antiviral activity on its own ([1]; alone, range up to 20 μg/ml)	activity against BVDV on its own [2]	Average Bacterial Assay Score HCV p7 [3]	Virus in the culture supernatant (viral RNA copy number) (GBV-B; cells pre-treated with 20 μM)	Efficacy when compounds were added post-inoculation (GBV-B; post-treatment versus pre-treatment)	IC50 ([1]; BVDV in MDBK cells, compound added just prior to infection and maintained, N/A = not achieved, read-out: IC50) [nM]	EC50 ([1]; Bovine viral diarrhea virus isolates and strains, MDBK, drug tested individually against BVDV) [nM]	EC50 ([1]; Bovine viral diarrhea virus isolates and strains, MDBK, in the presence of 5 IU/ml IFNα, Hill slope constrained) [nM]	EC50 ([1]; Bovine viral diarrhea virus isolates and strains, MDBK, in the presence of 5 IU/ml IFNα, variable Hill slope) [nM]	EC50 ([1]; Bovine viral diarrhea virus isolates and strains, MDBK, in the presence of 10 IU/ml IFNα, Hill slope constrained) [nM]	EC50 ([1]; Bovine viral diarrhea virus isolates and strains, MDBK, in the presence of 10 IU/ml IFNα, variable Hill slope) [nM]	inhibition at 0.031 µM ([1]; Bovine viral diarrhea virus isolates and strains, MDBK, 31 nM BIT225 alone) [%]	IC50 ([1]; Bovine viral diarrhea virus isolates and strains, MDBK, Table 2a, read-out: BVDV IC50) [nM]	IC50 ([1]; Bovine viral diarrhea virus isolates and strains, MDBK, subsequent repeat assay, read-out: IC50) [nM]	IC50 values (in words) ([1]; first experiment, Table 2)	TC50 [4] [nM]
NC(=O)c1ncn([C@@H]2O[C@H](CO)[C@@H](O)[C@H]2O)n1 [Ribavirin, reference compound]	no antiviral activity	only very little antiviral activity was detected; also recorded: no antiviral activity	very little activity														
Cn1cc(-c2cccc3cc(C(=O)NC(=N)N)ccc23)cn1 [BIT225, 5-(1-methylpyrazol-4-yl)2-naphthoylguanidine]				1.20	no virus was detected	reduced somewhat	530	314	92	149	71	125	~5	1270	330	sub-micromolar	11600
